Key:
[1] = tested on: EKVX; experiment: NCI SRB GI50 screen; assay type: cell-based; conditions: Homo sapiens, Non-small lung, 48 hrs exposure, read-out: Growth Inhibition GI50 EKVX
Description: (§1) 2-Anilino nicotinyl linked 2-amino benzothiazole conjugates of formula 9-12 were tested against fifty nine human cancer cell lines derived from nine cancer types (leukemia, non-small cell lung cancer, colon cancer, CNS cancer, melanoma, ovarian cancer, renal cancer, prostate cancer and breast cancer) as per NCI protocol. For each compound, dose response curves for individual cell lines were measured at a minimum of five concentrations at 10 fold dilutions. A protocol of 48 hrs continuous drug exposure was used, and a sulforhodamine B (SRB) protein assay was used to estimate cell viability or growth.

[2] = tested on: HCT-116; experiment: NCI SRB GI50 screen; assay type: cell-based; conditions: Homo sapiens, Colon, 48 hrs exposure, read-out: Growth Inhibition GI50 HCT-116
Description: as §1

[3] = tested on: SNB-19; experiment: NCI SRB GI50 screen; assay type: cell-based; conditions: Homo sapiens, CNS, 48 hrs exposure, read-out: Growth Inhibition GI50 SNB-19
Description: as §1

[4] = tested on: HOP-62; experiment: NCI SRB GI50 screen; assay type: cell-based; conditions: Homo sapiens, Non-small lung, 48 hrs exposure, read-out: Growth Inhibition GI50 HOP-62
Description: as §1

[5] = tested on: MDA-MB-468; experiment: NCI SRB GI50 screen; assay type: cell-based; conditions: Homo sapiens, Breast, 48 hrs exposure, read-out: Growth Inhibition GI50 MDA-MB-468
Description: as §1

[6] = tested on: HOP-92; experiment: NCI SRB GI50 screen; assay type: cell-based; conditions: Homo sapiens, Non-small lung, 48 hrs exposure, read-out: Growth Inhibition GI50 HOP-92
Description: as §1

[7] = tested on: A498; experiment: NCI SRB GI50 screen; assay type: cell-based; conditions: Homo sapiens, Renal, 48 hrs exposure, read-out: Growth Inhibition GI50 A498
Description: as §1

[8] = tested on: HCT-15; experiment: NCI SRB GI50 screen; assay type: cell-based; conditions: Homo sapiens, Colon, 48 hrs exposure, read-out: Growth Inhibition GI50 HCT-15
Description: as §1

[9] = tested on: HS 578T; experiment: NCI SRB GI50 screen; assay type: cell-based; conditions: Homo sapiens, Breast, 48 hrs exposure, read-out: Growth Inhibition GI50 HS 578T
Description: as §1

[10] = tested on: OVCAR-5; experiment: NCI SRB GI50 screen; assay type: cell-based; conditions: Homo sapiens, Ovarian, 48 hrs exposure, read-out: Growth Inhibition GI50 OVCAR-5
Description: as §1

[11] = tested on: NCI-H23; experiment: NCI SRB GI50 screen; assay type: cell-based; conditions: Homo sapiens, Non-small lung, 48 hrs exposure, read-out: Growth Inhibition GI50 NCI-H23
Description: as §1

[12] = tested on: MOLT-4; experiment: NCI SRB GI50 screen; assay type: cell-based; conditions: Homo sapiens, Leukemia, 48 hrs exposure, read-out: Growth Inhibition GI50 MOLT-4
Description: as §1

[13] = tested on: UACC-257; experiment: NCI SRB GI50 screen; assay type: cell-based; conditions: Homo sapiens, Melanoma, 48 hrs exposure, read-out: Growth Inhibition GI50 UACC-257
Description: as §1

[14] = tested on: SK-MEL-2; experiment: NCI SRB GI50 screen; assay type: cell-based; conditions: Homo sapiens, Melanoma, 48 hrs exposure, read-out: Growth Inhibition GI50 SK-MEL-2
Description: as §1

[15] = tested on: CCRF-CEM; experiment: NCI SRB GI50 screen; assay type: cell-based; conditions: Homo sapiens, Leukemia, 48 hrs exposure, read-out: Growth Inhibition GI50 CCRF-CEM
Description: as §1

[16] = tested on: OVCAR-4; experiment: NCI SRB GI50 screen; assay type: cell-based; conditions: Homo sapiens, Ovarian, 48 hrs exposure, read-out: Growth Inhibition GI50 OVCAR-4
Description: as §1

[17] = tested on: SK-OV-3; experiment: NCI SRB GI50 screen; assay type: cell-based; conditions: Homo sapiens, Ovarian, 48 hrs exposure, read-out: Growth Inhibition GI50 SK-OV-3
Description: as §1

[18] = tested on: SF-268; experiment: NCI SRB GI50 screen; assay type: cell-based; conditions: Homo sapiens, CNS, 48 hrs exposure, read-out: Growth Inhibition GI50 SF-268
Description: as §1

[19] = tested on: CAKI-1; experiment: NCI SRB GI50 screen; assay type: cell-based; conditions: Homo sapiens, Renal, 48 hrs exposure, read-out: Growth Inhibition GI50 CAKI-1
Description: as §1

[20] = tested on: MDA-MB-231/ATCC; experiment: NCI SRB GI50 screen; assay type: cell-based; conditions: Homo sapiens, Breast, 48 hrs exposure, read-out: Growth Inhibition GI50 MDA-MB-231/ATCC
Description: as §1

[21] = tested on: OVCAR-8; experiment: NCI SRB GI50 screen; assay type: cell-based; conditions: Homo sapiens, Ovarian, 48 hrs exposure, read-out: Growth Inhibition GI50 OVCAR-8
Description: as §1

[22] = tested on: IGROV1; experiment: NCI SRB GI50 screen; assay type: cell-based; conditions: Homo sapiens, IGROV-1; Ovarian, 48 hrs exposure; read-out: Growth Inhibition GI50 IGROV1
Description: as §1

[23] = tested on: M14; experiment: NCI SRB GI50 screen; assay type: cell-based; conditions: Homo sapiens, Melanoma, 48 hrs exposure, read-out: Growth Inhibition GI50 M14
Description: as §1

[24] = tested on: SN12C; experiment: NCI SRB GI50 screen; assay type: cell-based; conditions: Homo sapiens, Renal, 48 hrs exposure, read-out: Growth Inhibition GI50 SN12C
Description: as §1

[25] = tested on: UACC-62; experiment: NCI SRB GI50 screen; assay type: cell-based; conditions: Homo sapiens, Melanoma, 48 hrs exposure, read-out: Growth Inhibition GI50 UACC-62
Description: as §1

[26] = tested on: BT-549; experiment: NCI SRB GI50 screen; assay type: cell-based; conditions: Homo sapiens, Breast, 48 hrs exposure, read-out: Growth Inhibition GI50 BT-549
Description: as §1

[27] = tested on: LOX IMVI; experiment: NCI SRB GI50 screen; assay type: cell-based; conditions: Homo sapiens, Melanoma, 48 hrs exposure, read-out: Growth Inhibition GI50 LOX IMVI
Description: as §1

[28] = tested on: SF-295; experiment: NCI SRB GI50 screen; assay type: cell-based; conditions: Homo sapiens, CNS, 48 hrs exposure, read-out: Growth Inhibition GI50 SF-295
Description: as §1

[29] = tested on: PC-3; experiment: NCI SRB GI50 screen; assay type: cell-based; conditions: Homo sapiens, Prostate, 48 hrs exposure, read-out: Growth Inhibition GI50 PC-3
Description: as §1

[30] = tested on: NCI-H522; experiment: NCI SRB GI50 screen; assay type: cell-based; conditions: Homo sapiens, Non-small lung, 48 hrs exposure, read-out: Growth Inhibition GI50 NCI-H522
Description: as §1

[31] = tested on: NCI/ADR-RES; experiment: NCI SRB GI50 screen; assay type: cell-based; conditions: Homo sapiens, Ovarian, 48 hrs exposure, read-out: Growth Inhibition GI50 NCI/ADR-RES
Description: as §1

Structure (SMILES) | GI50 [1] [nM] | GI50 [2] [nM] | GI50 [3] [nM] | GI50 [4] [nM] | GI50 [5] [nM] | GI50 [6] [nM] | GI50 [7] [nM] | GI50 [8] [nM] | GI50 [9] [nM] | GI50 [10] [nM] | GI50 [11] [nM] | GI50 [12] [nM] | GI50 [15] [nM] | GI50 [16] [nM] | GI50 [17] [nM] | GI50 [18] [nM] | GI50 [19] [nM] | GI50 [20] [nM] | GI50 [21] [nM] | GI50 [22] [nM] | other results
O=C(Nc1nc2ccc(F)cc2s1)c1cccnc1Nc1ccc(Cl)cc1 [Compound 9, N3-(6-fluoro-1,3-benzothiazol-2-yl)-2-(4-chloroanilino)nicotinamide] | 1940 | 1670 | 3650 | 2700 | 1610 | 1690 | 1920 | 3320 | 1990 | 2630 | 1670 | 2220 | 1060 | 2920 | 2230 | 3930 | 2890 | 1850 | 2240 | 2000 | GI50 [13]: 164 nM; GI50 [14]: 1250 nM; GI50 [23]: 2640 nM; GI50 [24]: 2300 nM; GI50 [25]: 1940 nM; GI50 [26]: 2050 nM; GI50 [27]: 2620 nM; GI50 [28]: 1800 nM; GI50 [29]: 2130 nM; GI50 [30]: 1020 nM; GI50 [31]: 2090 nM; melting point: 254 to 257 °C
O=C(Nc1nc2ccc(F)cc2s1)c1cccnc1Nc1ccc(Cl)cc1Cl [Compound 10, N3-(6-fluoro-1,3-benzothiazol-2-yl)-2-(2,4-dichloroanilino)nicotinamide] | 2070 | 2190 | 3660 | 3940 | 1880 | 1480 | 2830 | 3740 | 3250 | 4460 | 2340 | 2270 | 1850 | 2960 | 2500 | 3880 | 1500 | 3410 | 2780 | 1820 | GI50 [13]: 170 nM; GI50 [14]: 1740 nM; GI50 [23]: 3370 nM; GI50 [24]: 2320 nM; GI50 [25]: 2120 nM; GI50 [26]: 3010 nM; GI50 [27]: 4190 nM; GI50 [28]: 1830 nM; GI50 [29]: 2110 nM; GI50 [30]: 1480 nM; GI50 [31]: 2510 nM; melting point: 208 to 210 °C
COc1cc(Nc2ncccc2C(=O)Nc2nc3ccc(F)cc3s2)cc(OC)c1OC [Compound 11, N3-(6-fluoro-1,3-benzothiazol-2-yl)-2-(3,4,5-trimethoxyanilino)nicotinamide] | 2700 | 3490 | 3490 | 5780 | 1220 | 1480 | 3450 | 4380 | 2570 | 25600 | 2270 | 2110 | 3260 | 2730 | 7400 | 6560 | 3150 | 4610 | 3620 | 1770 | GI50 [14]: 2340 nM; GI50 [23]: 3080 nM; GI50 [24]: 4730 nM; GI50 [25]: 1710 nM; GI50 [26]: 2630 nM; GI50 [27]: 3870 nM; GI50 [28]: 2550 nM; GI50 [29]: 2730 nM; GI50 [30]: 1550 nM; GI50 [31]: 2920 nM; melting point: 214 to 216 °C
COc1ccc2nc(NC(=O)c3cccnc3Nc3cc(OC)c(OC)c(OC)c3)sc2c1 [Compound 12, N-3-(6-methoxy-1,3-benzothiazol-2-yl)-2-(3,4,5-trimethoxyanilino) nicotinamide] | 11500 | 4500 | 15000 | 6330 | 17800 | 2240 | 2190 | 11200 | 5770 | 14500 | 5380 | 24200 | 20100 | 15000 | 3720 | 4430 | 16400 | 5620 | 6520 | 13200 | GI50 [13]: 8450 nM; GI50 [23]: 10500 nM; GI50 [24]: 11700 nM; GI50 [25]: 8450 nM; GI50 [26]: 11600 nM; GI50 [27]: 15700 nM; GI50 [28]: 8340 nM; GI50 [29]: 6670 nM; GI50 [30]: 2600 nM; GI50 [31]: 8970 nM; melting point: 121 to 125 °C (dec.)

Source: patent US9029553B2, “2-anilino nicotinyl linked 2-amino benzothiazole conjugates and process for the preparation thereof” (Council of Scientific & Industrial Research, priority 2011, dated 2015)
